# How the values were obtained:
# T-47D cells [1] = test: MTT assay IC50 over T-47D; format: cell-based; details: Homo sapiens, T47D
# Protocol: (§1) In the beginning, the IC50 of compound 12e over T-47D (American Type Culture Collection, US) was determined using MTT assay, and the same procedure was applied for A375 and SK-MEL-5. T-47D cells (10^5 cells) were treated with 12e (5 µM) and incubated for 48h. Cells were collected by trypsinization, washed two times with ice-cold PBS, and re-suspended in 60% cold ethanol and kept at 4 °C for 60 min. PBS was used to wash the fixed cells and was re-suspended in 1.0 mL of PBS containing 10µg/mL propidium iodide and 50 µg/mL RNAase A. Cells were incubated in the dark at 37 °C for 20min; then, DNA contents were analyzed using flow cytometric analysis using an FL2 (λex/em 535/617 nm) signal detector. For each sample, 12,000 events were acquired. The cell cycle distribution was obtained by using ACEA NovoExpress^TM software.
# T-47D cells [2] = test: Cell cycle analysis by flow cytometry (propidium iodide); format: cell-based; details: 5 µM
# Protocol: The distribution of cell cycle was determined by flow cytometric assay after using propidium iodide to stain the DNA content of the treated cells. […] Meanwhile, the cells of the G2-phase decreased to 6% compared to 8% in the untreated cells.
# as §1, with “T-47D cells (10^5 cells) were treated with 12e (5 µM) and incubated for 48h.” left out
# CNS cancer cell lines = test: NCI 60 screen, sub-panel mean; format: cell-based, human; details: NCI-60, CNS sub-panel
# Protocol: (§2) Anticancer profiling over a panel of 60 cancer cell lines was carried out at the National Cancer Institute (NCI), Bethesda, Maryland, USA, https://dtp.cancer.gov/discovery_development/nci-60/methodology.htm (Last visit 22 September 2021), using the standard procedure (detailed procedure is located in the Supplementary Information page 50 s).
# (§3) NCI standard procedure for 60 cell lines assay
# (§4) The human tumor cell lines of the cancer screening panel are grown in RPMI 1640 mediu m containing 5% fetal bovine serum and 2 mM L-glutamine. For a typical screening experiment, cells are inoculated into 96 well microtiter plates in 100 μL at plating densities ranging from 5,000 to 40,000 cells/well depending on the doubling time of individual cell lines. After cell inoculation, the microtiter plates are incubated at 37° C, 5 % CO2, 95 % air and 100 % relative humidity for 24 h prior to addition of experimental drugs.
# (§5) After 24 h, two plates of each cell line are fixed in situ with TCA, to represent a measurement of the cell population for each cell line at the time of drug addition (Tz). Experimental drugs are solubilized in dimethyl sulfoxide at 400-fold the desired final maximum test concentration (10 µM) and stored frozen prior to use. At the time of drug addition, an aliquot of frozen concentrate is thawed and diluted to twice the desired final maximum test concentration with co mp lete medium containing 50 μg/ml gentamicin. Additional four, 10-fold or ½ log serial dilutions are made to provide a total of five drug concentrations plus control. Aliquots of 100 μl of these different drug dilutions are added to the appropriate microtiter wells already containing 100 μl of medium, resulting in the required final drug concentrations.
# (§6) Following drug addition, the plates are incubated for an additional 48 h at 37°C, 5 % CO2, 95 % air, and 100 % relative humidity. For adherent cells, the assay is terminated by the addition of cold TCA. Cells are fixed in situ by the gentle addition of 50 μl of cold 50 % (w/v) TCA (final concentration, 10 % TCA) and incubated for 60 minutes at 4°C. The supernatant is discarded, and the plates are washed five times with tap water and air dried. Sulforhodamine B (SRB) solution (100 μl) at 0.4 % (w/v) in 1 % acetic acid is added to each well, and plates are incubated for 10 minutes at room temperature. After staining, unbound dye is removed by washing five times with 1 % acetic acid and the plates are air dried. Bound stain is subsequently solubilized with 10 mM trizma base, and the absorbance is read on an automated plate reader at a wavelength of 515 nm. For suspension cells, the methodology is the same except that the assay is terminated by fixing settled cells at the bottom of the wells by g ently adding 50 μl of 80 % TCA (final concentration, 16 % TCA). Using the seven absorbance measurements [time zero, (Tz), control growth, (C), and test growth in the presence of drug at the five concentration levels (Ti)], the percentage growth is calculated at each of the drug concentrations levels. Percentage growth inhibition is calculated as:
# (§7) [(Ti-Tz)/(C-Tz)] x 100 for concentrations for which Ti>/=Tz
# (§8) [(Ti-Tz)/Tz] x 100 for concentrations for which Ti<Tz.
# (§9) Three dose response parameters are calculated for each experimental agent. Growth inhibition of […]
# (§10) resulting in a 50% reduction in the net protein increase (as measured by SRB staining) in control cells during the drug incubation. The drug concentration resulting in total growth inhibition […]
# (§11) (TGI) is calculated from Ti = Tz.
# [3] = test system: melanoma cancer cell lines; test: NCI 60 screen, sub-panel mean; format: cell-based, human; details: NCI-60, melanoma sub-panel
# Protocol: as §2, §3, §4, §5, §6, §7, §8, §9, §10, §11
compound,measurement,setting,value
"O=S(=O)(NCCNc1nccc(-n2cnc3ccccc32)n1)c1ccc(C(F)(F)F)cc1 [12e, N-(2-((4-(1H-benzo [d]imidazol-1-yl)pyrimidin-2-yl)amino)ethyl)-4-(trifluoromethyl)benzenesulfonamide]",IC50,T-47D cells [1],5.35 µM
same,"cells in S-phase, treated cells",T-47D cells [2]; control 14%,18%
same,"cells in G1 phase, treated cells",T-47D cells [2]; control 29%,31%
same,"cells in G2-phase, treated cells",T-47D cells [2]; untreated 8%,6%
same,mean percent inhibition,CNS cancer cell lines,50%
same,mean percent inhibition,[3],50%

# — PMC8508980, “Design, Synthesis and Anticancer Profile of New 4-(1H-benzo[d]imidazol-1-yl)pyrimidin-2-amine-Linked Sulfonamide Derivatives with V600EBRAF Inhibitory Effect” (International Journal of Molecular Sciences, 2021)
